From patent publication US20050074820A1, “Method for the immunohistological detection of fibrogenesis in histological tissue sections using antiboides against C-terminal procollagen alpha1 (III) propeptide” (priority 2001, published 2005)

Key:
[1] = system: patients with chronic hepatitis B; assay: Serum ALT before and after 52 weeks of treatment, phase III trials; assay type: in vivo, human
[2] = system: hepatitis B e-antigen (HBeAg); assay: Loss of hepatitis B e-antigen under treatment; assay type: in vivo, hepatitis B virus; settings: lamivudine 100 mg daily, 52 weeks; versus 9% placebo, p<0.05
Text: The liver tissue samples were examined by a pathologist. […] A reduction of the HAI by 2 points HAI is considered a significant change in hepatic histology after the termination of the treatment.
The baselines and the quantitative immunostains against α-SMA und PIIICP were compared between lamivudine und placebo patients using Student's t-tests. In addition, the results of the immunostains were correlated with the loss of the hepatitis B e-antigen (HBeAg) using the Mantel-Haenszel chi square test.

[3] = system: hepatitis B virus (HBV) DNA; assay: HBV DNA concentration before and after treatment; assay type: in vivo
PIIICP = assay: Quantitative immunostain of PIIICP in liver tissue sections (image analysis); assay type: in vivo, human; settings: for PIIICP expression (stained area over total area): all lamivudine patients; for PIIICP expression: lamivudine-treated, Pre
Method: (§1) Paraffin-embedded tissue sections were stained for α-smooth muscle actin (α-SMA) or PIIICP (FIG. 2). The staining procedure was carried out using the DAKO Envision System (DAKO; Carpinteria, Calif., USA). After inhibiting endogenous peroxidase with Peroxidase Blocking Agent (DAKO) the tissue sections were incubated for 10 minutes at room temperature with a murine monoclonal anti-α-SMA antibody (diluted 1:200 in PBS+1% BSA) or with a murine monoclonal anti-PIIICP antibody (antibody concentration 5 mg/ml; diluted 1:100 in PBS+1% BSA). After the incubation, the sections were washed twice with PBS buffer for 3 minutes, respectively. The tissue sections were then incubated with labelled polymer (peroxidase-labelled polymer conjugated with anti-rabbit and anti-mouse immunoglobulins from the goat) at room temperature for 10 minutes. After washing twice with PBS buffer the tissue sections were incubated with 3,3-diaminobenzidine (DAB) substrate for 8 minutes, rinsed with water and exposed to DAB Enhancer (Innovex Bioscience; Richmond, Calif., USA) for 5 minutes and subsequently rinsed with water again. Counterstaining was performed with hematoxyline. As a negative control all samples were incubated with 1% BSA solution instead of antibody.
(§2) The stained parenchymal areas on the tissue sections, that are formed by α-SMA or PIIICP-positive hepatic stellate cells, were quantified with the Bioquant TCW 98 image analysis program (Bioquant Image Analysis; www.bioquant.com) with the connected Computer as well as with an Olympus microscope. The results were stated as the percent ratio between the stained area and the total area.
(§3) The immunohistochemical quantification was futhermore correlated with changes of individual components of the histological activity index (HAI) or with entire HAI. For the individual patients in both treatment groups—lamivudine or placebo, respectively—the change of α-SMA- or PIIICP-stained areas was calculated according to: ΔSMA (or ΔPIIICP)=percent area before treatment minus percent […]. The mean change was compared between the lamivudine-treated and the placebo-treated groups using Student's t-Test.

α-SMA = assay: Quantitative immunostain of α-SMA in liver tissue sections (image analysis); assay type: in vivo, human; settings: for α-SMA expression (stained area over total area): all lamivudine patients; for α-SMA expression: lamivudine-treated, Pre
Method: as §1, §2, §3

[4] = lamivudine group n = 47, Post (100 mg daily, 52 weeks)

Structure (SMILES): Nc1ccn([C@@H]2CS[C@H](CO)O2)c(=O)n1 [Lamivudine, lamivudine]
- ALT (mean ± SD) ([1]; chronic hepatitis B patients, lamivudine group n = 47, Pre (before treatment)): 154 ± 100 IU/l
- ALT (mean ± SD) [1, 4]: 60.7 ± 55 IU/l
- patients who lost the HbeAg [2]: 36.2%
- HBV DNA [3, 4]: 33 ± 120 pg/mL
- HBV DNA ([3]; lamivudine group n = 47, Pre (before treatment)): 180 ± 211^ψ pg/ml
- PIIICP expression (stained area over total area) (PIIICP; after lamivudine): 0.02%
- PIIICP expression (stained area over total area) (PIIICP; before lamivudine): 0.06%
- PIIICP expression (PIIICP; HbeAg loss (n = 17)): 0.10
- PIIICP expression (PIIICP; No loss of HbeAg (n = 30)): 0.03
- α-SMA expression (stained area over total area) (α-SMA; after treatment): 0.58±0.11%
- α-SMA expression (stained area over total area) (α-SMA; before treatment): 1.06±0.23%
- α-SMA expression (α-SMA; HbeAg loss (n = 17)): 1.46
- α-SMA expression (α-SMA; No loss of HbeAg (n = 30)): 0.83
